# What was measured:
# [1] = system: Th Ser40 phosphorylation in mouse striatum slices; test: Th Ser40 phosphorylation in mouse striatal slices ex vivo (WES automated western); format: cell-based; conditions: mouse striatal slices in aCSF
# Source text: FIG. 13. Bay 60-7550 and Guanylin synergize to induce Ser40 phosphorylation Analysis of striatal slices treated with indicated compounds. WES data showing the phosphorylation of Th on Serine 40 is shown as well as total Th levels (a). From left to right are sequential striatal slices from rostral to caudal. Every slice is split into left and right hemisphere and either treated with compounds or vehicle. Left a positive and negative control is shown (Neuro2a cells transfected with Th or empty vector). The amount of Th Ser40 is corrected for the amount of total Th and shown in the bar graph (b). Each individual slice is indicated by a different symbol. Signficance is determined using a 2-tailed paired t-test. 2-tailed paired t-test: p=0.006.
# Adult mice with an average of 5 weeks were sacrificed and the brain was quickly removed and sliced into coronal sections of 250 μm using a vibratome. Sections containing striatum were micro-dissected to remove non-striatal structures. Hemispheres were separated and one hemisphere was treated with compounds whereas the counter-hemisphere was treated with vehicle. Treatment of slices occurred in carbonized artificial cerebrospinal fluid (aCSF). After treatments, slices were lyzed in SDS containing sample buffer, sonicated, and heated at 95° C. Samples were analyzed on a WES automated western system (Protein Simple) according to manufacturer's instructions.
# To investigate the effect of PDE2 inhibition in the mouse brain, an ex-vivo approach using brain slices was utilized. Coronal slices of mouse striatum were prepared and treated with BAY-60 7550 diluted in aCSF and subsequently analyzed by a WES automated western system. […] PDE2 is thus expressed in dopaminergic neurons and PDE2 protein and Th protein are present in the synaptic terminals of the neurons which project from the midbrain dopamine system to the striatum. To investigate the effects of GUCY2C ligands on Th activation, coronal slices of the mouse striatum were prepared, treated with guanylin and analyzed for Th Ser40 phosphorylation as was done for BAY-60-7550. […] The machinery for producing dopamine is thus present in the synaptic terminals where dopamine is released. […] Since both BAY 60-7550 and guanylin increased Th phosphorylation at 10μM, but not at 1 μM, we examined the effect of combining BAY 60-7750 and guanylin at 1μM.
# GUCY2C R792S mutant = biological target: T1, GUCY2C R792S mutant (Homo sapiens, UniProt P25092, R792S); test: Th Ser40 phosphorylation in HEK cells co-transfected with Th and GUCY2C R792S gain-of-function mutant versus wt; format: cell-based; conditions: HEK co-transfected with Th and wt or R792S GUCY2C, guanylin treatment
# T1 construct: expressed in transfected cells; host or cells: HEK cells, co-transfected with Th
# T1 sequence (P25092 24-1073 R792S): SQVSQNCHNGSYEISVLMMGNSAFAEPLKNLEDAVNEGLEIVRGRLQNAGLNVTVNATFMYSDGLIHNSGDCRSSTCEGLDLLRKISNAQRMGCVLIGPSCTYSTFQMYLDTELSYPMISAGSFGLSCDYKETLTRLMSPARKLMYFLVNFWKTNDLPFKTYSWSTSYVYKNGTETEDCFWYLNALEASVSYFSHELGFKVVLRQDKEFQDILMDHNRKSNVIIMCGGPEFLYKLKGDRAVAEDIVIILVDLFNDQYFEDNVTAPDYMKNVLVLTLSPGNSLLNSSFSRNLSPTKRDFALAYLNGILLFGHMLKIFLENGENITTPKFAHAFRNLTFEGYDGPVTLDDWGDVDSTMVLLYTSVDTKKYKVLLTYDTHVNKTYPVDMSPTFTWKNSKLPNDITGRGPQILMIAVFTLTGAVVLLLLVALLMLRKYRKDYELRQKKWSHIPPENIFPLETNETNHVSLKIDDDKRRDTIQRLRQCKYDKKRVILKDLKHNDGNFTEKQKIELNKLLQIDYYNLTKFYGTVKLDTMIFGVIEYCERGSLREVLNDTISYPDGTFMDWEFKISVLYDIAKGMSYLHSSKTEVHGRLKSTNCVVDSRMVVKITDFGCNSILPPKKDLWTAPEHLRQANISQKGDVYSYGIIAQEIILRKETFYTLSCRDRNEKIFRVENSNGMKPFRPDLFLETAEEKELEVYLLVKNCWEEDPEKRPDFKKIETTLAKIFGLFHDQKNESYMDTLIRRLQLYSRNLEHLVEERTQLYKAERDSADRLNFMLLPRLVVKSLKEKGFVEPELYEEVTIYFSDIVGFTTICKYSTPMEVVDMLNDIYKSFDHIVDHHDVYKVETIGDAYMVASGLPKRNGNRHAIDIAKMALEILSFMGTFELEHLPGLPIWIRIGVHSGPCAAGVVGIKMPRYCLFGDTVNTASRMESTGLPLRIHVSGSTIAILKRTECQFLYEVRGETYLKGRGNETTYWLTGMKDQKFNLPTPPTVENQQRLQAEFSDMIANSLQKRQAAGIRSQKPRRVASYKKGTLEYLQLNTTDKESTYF
# Protocol: FIG. 5. […] (A) HEK cultures were treated with guanylin, in the presence or absence of IBMX. […] Unpaired Student's t-test (p-values: ****<0.0001, **<0.01, *<0.05). (B) HEK cells were co-transfected with Th and either the wt GUCY2C or a gain-of-function mutant (R792S). Ser40 phosphorylation was studied following guanylin treatment (G). […] Unpaired Student's t-test (p-values: ***<0.001, **<0.01).
# HEK cells were transfected using the calcium-phosphate method. 12-well plates were refreshed with 500 μL of growth medium before transfection. […] The plasmid mixture was taken into a final concentration of 250 mM CaCl2 in a total volume of 110 μL. A complementary tube was filled with 110 μL of HEPES-buffered saline 2X (HEBS 2X: 1.5 mM Na2HPO4, 50 mM HEPES pH 7.05, 280 mM NaCl). The tube with CaCl2 was pipetted drop-wise into the HEBS and mixed gently. After 60 seconds of incubation, 55 µL of the final mixture was added to each well. […]
# Up to 35 μL of sample was loaded in each slot and run in the presence of tris-glycine buffer and 0.1% SDS. […] After additional washings during 1 hour, blots were exposed to an enhanced chemiluminescence solution and the signal was detected using an Odyssey imager (LI-COR). […] For graph quantifications, ‘Fold Change’ represents the ratio P-Ser40/Total Th. Statistical comparisons between pair of groups correspond to unpaired Student's t-tests, as calculated with GraphPad Prism. […]
Compound,Ser40 phosphorylation in striatal slices ([1]; 1 μM),Ser40 phosphorylation in striatal slices ([1]; 10 μM),boost in Ser40 phosphorylation with R792S mutant compared to the wt receptor (GUCY2C R792S mutant) [fold]
COc1ccc(Cc2nn3c([C@@H](CCCc4ccccc4)[C@@H](C)O)nc(C)c3c(=O)[nH]2)cc1OC [BAY 60-7550],did not result in a significant increase,increase in Ser40 phosphorylation,–
"guanylin: natural agonistic ligand of GUCY2C, 15 amino acid polypeptide; commercially available rat/mouse guanylin (Chemcruz) (PNTCEICAYAACTGC) [reference compound]",did not result in a significant increase,increase in Ser40 phosphorylation,1.5

# Reference: patent publication US20210330736A1 (UNIVERSITEIT VAN AMSTERDAM, priority 2018, published 2021)
